Consider 27 molecules from patent US11192859B2, “Quinoline compounds as modulators of RAGE activity and uses thereof” (NEW YORK UNIVERSITY, priority 2016, dated 2021).

For test [1], the target named is ctRAGE (Homo sapiens (Human), UniProt Q15109). Description: Fluorescence binding assay (native tryptophan fluorescence titration). On the set-up: key to Fluorescent Binding Assay, Kd (nM): ***: No binding. As to conditions: 10 nM ctRAGE, pH 7.0, 5% DMSO; for Kd: read-out: Fluorescent Binding Assay, Kd. As for the experimental part: Native tryptophan fluorescence experiments were conducted using a Horiba Jobin Yvon Fluorolog spectrofluorometer. 1 mM of compound was dissolved in 10 mM phosphate buffer [pH 7.0] and 50% DMSO. ctRAGE was bacterially expressed and purified as described^1. 10 nM ctRAGE solution was individually titrated from 0.1 nM-100 μM with the compounds in 100 μL of 10 mM phosphate buffer [pH 7.0] and 5% DMSO. The excitation and emission wavelengths were 280 nm and 352 nm, respectively. Dissociation constants, Kd, were estimated from the changes in peak fluorescence intensities as a function of the free compound concentration by using Prism 5 software (GraphPad). Data were fit to the equation, (F−F0)/Fmax=[compound]/(Kd+[compound]) where F is the fluorescence intensity at a given compound concentration, F0 is the fluorescence intensity of the blank, and Fmax is the maximum fluorescence intensity.
ctRAGE, sequence (Q15109 364-404): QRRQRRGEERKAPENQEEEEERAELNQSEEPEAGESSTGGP

For test [2], the system named is Murine vascular smooth muscle cells (SMCs). Nature of the test: Smooth muscle cell migration assay (wounding assay), RAGE ligand CML-AGE. Type of test: cell-based. On the set-up: key to SMC migration Assay, IC50 (nM): ****: No inhibition or bad fit or inhibition out of range. To be noted: CML-AGE 10 μg/ml, 7 h; for IC50: Mus musculus, read-out: SMC migration Assay, IC50. As for the experimental part: FIG. 4 depicts effects of compounds on RAGE ligand-stimulated migration of murine aortic smooth muscle cells (SMCs). Migration of SMCs after incubation with the indicated RAGE inhibitor compounds or the parent molecule (“C12”) quinolone from the Chem-Bridge library was assessed. SMCs were grown to confluence and serum-starved overnight. The following morning, serum free media was removed and compounds were added (1 μM). Immediately following the addition of compounds, the monolayer was wounded using a p200 pipette tip and allowed to incubate for 1.5 h. Following this incubation, compounds were removed and fresh media containing RAGE ligand, CML-AGE (10 μg/ml), was added for 7 h. All images were measured at TO and T7 h and an area ingrowth of effective migrating cells was calculated. Each compound was tested in three independent wells and each well was photographed in 3 separate locations for a total of 9 images used in assessing area ingrowth. Error bars represent SEM. * indicates p<0.05 comparing CML-AGE vs. CML-AGE and compound treatment and # indicates p<0.001 comparing CML-AGE vs. serum free medium (SFM) vehicle. Note that SFM is the vehicle into which the RAGE ligand, CML-AGE, is added for testing the effect of RAGE ligand.
Murine vascular smooth muscle cells (SMCs) were cultured from the aortas of 10-week old male mice using a modification of the procedure of Travo and Barret^17. SMCs were cultured following an explant protocol in accordance with institutional guidelines. Wild-type murine aortic vascular SMCs were isolated and used between passages 8 to 12. Migration in response to the RAGE ligand CML-AGE (CML, 10 μg/ml) or a general effector, not a RAGE ligand, PDGF-BB, 10 ng/ml (R&D systems, Minneapolis, Minn., USA) was assessed with a wounding assay. Cells were grown to confluence in 12-well plates and starved overnight. The following morning, serum free media was removed and compounds were added. Immediately following the addition of compounds, the monolayer was wounded using a p200 pipette tip and the compounds were allowed to incubate for 1.5 h. Following this incubation, all compounds were removed and fresh media containing RAGE ligand or general effector, PDGF-BB, was added for 7 h. Cells were maintained at 37° C. and 5% CO2. Images were obtained at TO and T7. Each image was measured and an area ingrowth of effective migrating cells was calculated. The SMC migration assay data for representative compounds, Compounds 229 and 247, is depicted in FIGS. 5a and 5b, respectively.

As for `CC(=O)Nc1ccc(-c2cc(CN3CCOCC3)c3ccccc3n2)cc1F` [Compound 214, N-(2-fluoro-4-(4-(morpholinomethyl)quinolin-2-yl)phenyl)acetamide], the Kd in test [1] came out at 34 nM. Moreover, the IC50 in test [2] is 4 nM.
For `CC(=O)Nc1ccc(-c2cc(CN3CCOCC3)c3ccccc3n2)cc1Cl` [Compound 215, N-(2-chloro-4-(4-(morpholinomethyl)quinolin-2-yl)phenyl)acetamide], in that order: 27 nM and 460 nM.
Consider `COc1cc(-c2cc(CN3CCOCC3)c3ccccc3n2)ccc1NC(C)=O` [Compound 216, N-(2-methoxy-4-(4-(morpholinomethyl)quinolin-2-yl)phenyl)acetamide], for which the “Fluorescent Binding Assay, Kd (nM)” value in test [1] is given as “***”. Besides, the “SMC migration Assay, IC50 (nM)” value in test [2] is reported as “****”.
For `CC(=O)Nc1ccc(-c2cc(CN3CCOCC3)c3ccccc3n2)cc1O` [Compound 217, N-(2-hydroxy-4-(4-(morpholinomethyl)quinolin-2-yl)phenyl)acetamide], in that order: “***” and “****”.
Turning to `CC(=O)Nc1ccc(-c2cc(CN3CCOCC3)c3ccccc3n2)cc1C#N` [Compound 218, N-(2-cyano-4-(4-(morpholinomethyl)quinolin-2-yl)phenyl)acetamide], the Kd in test [1] is 80 nM. Besides, the IC50 in test [2] came to 133 nM.
In the case of `O=C(CO)Nc1ccc(-c2cc(CN3CCOCC3)c3ccccc3n2)cc1` [Compound 219, 2-hydroxy-N-(4-(4-(morpholinomethyl)quinolin-2-yl)phenyl)acetamide], in test [1], the Kd stood at 89 nM. Moreover, the “SMC migration Assay, IC50 (nM)” value in test [2] is “****”.
Regarding `COCC(=O)Nc1ccc(-c2cc(CN3CCOCC3)c3ccccc3n2)cc1` [Compound 220, 2-methoxy-N-(4-(4-(morpholinomethyl)quinolin-2-yl)phenyl)acetamide], the Kd in test [1] came to 22 nM. In addition, the IC50 in test [2] is 300 nM.
Take `NCC(=O)Nc1ccc(-c2cc(CN3CCOCC3)c3ccccc3n2)cc1` [Compound 221, 2-amino-N-(4-(4-(morpholinomethyl)quinolin-2-yl)phenyl)acetamide]: the Kd in test [1] worked out at 34 nM. Also, the IC50 in test [2] turned out to be 5000 nM.
As for `CC(=O)NCC(=O)Nc1ccc(-c2cc(CN3CCOCC3)c3ccccc3n2)cc1` [Compound 222, 2-acetamido-N-(4-(4-(morpholinomethyl)quinolin-2-yl)phenyl)acetamide], in test [1], the Kd is 32 nM. Moreover, the IC50 in test [2] came to 3200 nM.
Consider `CCC(=O)Nc1ccc(-c2cc(CN3CCOCC3)c3ccccc3n2)cc1` [Compound 223, N-(4-(4-(morpholinomethyl)quinolin-2-yl)phenyl)propionamide], for which the Kd in test [1] was found to be 72 nM.
Take `CC(C)C(=O)Nc1ccc(-c2cc(CN3CCOCC3)c3ccccc3n2)cc1` [Compound 224, N-(4-(4-(morpholinomethyl)quinolin-2-yl)phenyl)isobutyramide]: in test [1], the Kd came to 32 nM. The IC50 in test [2] amounted to 99 nM.
For `CC(=O)Nc1ccc(-c2cc(CN3CCOCC3)c3ccc(F)cc3n2)cc1` [Compound 225, N-(4-(7-fluoro-4-(morpholinomethyl)quinolin-2-yl)phenyl)acetamide], in that order: 122 nM and 44 nM.
The like results for `CC(=O)Nc1ccc(-c2cc(CN3CCOCC3)c3ccc(Cl)cc3n2)cc1` [Compound 226, N-(4-(7-chloro-4-(morpholinomethyl)quinolin-2-yl)phenyl)acetamide] were, in that order, 25 nM and 3 nM.
As for `CC(=O)Nc1ccc(-c2cc(CN3CCOCC3)c3ccc(C)cc3n2)cc1` [Compound 227, N-(4-(7-methyl-4-(morpholinomethyl)quinolin-2-yl)phenyl)acetamide], the Kd in test [1] amounted to 10 nM. In addition, the “SMC migration Assay, IC50 (nM)” value in test [2] is given as “****”.
In the case of `COc1ccc2c(CN3CCOCC3)cc(-c3ccc(NC(C)=O)cc3)nc2c1` [Compound 228, N-(4-(7-methoxy-4-(morpholinomethyl)quinolin-2-yl)phenyl)acetamide], in test [1], the Kd turned out to be 122 nM. In addition, the IC50 in test [2] amounted to 10 nM.
Turning to `CC(=O)Nc1ccc(-c2cc(CN3CCOCC3)c3ccc(C#N)cc3n2)cc1` [Compound 229, N-(4-(7-cyano-4-(morpholinomethyl)quinolin-2-yl)phenyl)acetamide], in test [1], the Kd is 3 nM. In test [2], the IC50 came to 0.2 nM.
Consider `CC(=O)Nc1ccc(-c2cc(CN3CCOCC3)c3ccc(C(N)=O)cc3n2)cc1` [Compound 230, 2-(4-acetamidophenyl)-4-(morpholinomethyl)quinoline-7-carboxamide], for which the “Fluorescent Binding Assay, Kd (nM)” value in test [1] is reported as “***”. For the same molecule, in test [2], the “SMC migration Assay, IC50 (nM)” value is “****”.
For the molecule `CC(=O)Nc1ccc(-c2cc(CNCCO)c3ccccc3n2)cc1` [Compound 231, N-(4-(4-(((2-hydroxyethyl)amino)methyl)quinolin-2-yl)phenyl)acetamide], the dissociation constant Kd in test [1] amounted to 47 nM. Further, the IC50 in test [2] is 18 nM.
For `CC(=O)Nc1ccc(-c2cc(CN(C)CCO)c3ccccc3n2)cc1` [Compound 232, N-(4-(4-(((2-hydroxyethyl)(methyl)amino)methyl)quinolin-2-yl)phenyl)acetamide], in test [1], the “Fluorescent Binding Assay, Kd (nM)” value is given as “***”. For the same molecule, the “SMC migration Assay, IC50 (nM)” value in test [2] is recorded as “****”.
For `COCCNCc1cc(-c2ccc(NC(C)=O)cc2)nc2ccccc12` [Compound 233, N-(4-(4-(((2-methoxyethyl)amino)methyl)quinolin-2-yl)phenyl)acetamide], the “SMC migration Assay, IC50 (nM)” value in test [2] is on record as “****”.
Take `COCCN(C)Cc1cc(-c2ccc(NC(C)=O)cc2)nc2ccccc12` [Compound 234, N-(4-(4-(((2-methoxyethyl)(methyl)amino)methyl)quinolin-2-yl)phenyl)acetamide]: in test [1], the Kd was 12 nM. Besides, in test [2], the IC50 turned out to be 0.4 nM.
Consider `COc1ccc2c(CN3CCOCC3)cc(-c3ccc(NC(C)=O)c(Cl)c3)nc2c1` [Compound 257, N-(2-chloro-4-(7-methoxy-4-(morpholinomethyl)quinolin-2-yl)phenyl)acetamide], for which, in test [2], the IC50 was determined as 1500 nM.
Same read-out and setting: the same measure for `COc1ccc2c(CN3CCOCC3)cc(-c3ccc(NC(C)=O)c(C#N)c3)nc2c1` [Compound 258, N-(2-cyano-4-(7-methoxy-4-(morpholinomethyl)quinolin-2-yl)phenyl)acetamide]: 323 nM.
Turning to `CC(=O)Nc1ccc(-c2cc(CN3CCOCC3)c3ccc(C#N)cc3n2)cc1F` [Compound 259, N-(4-(7-cyano-4-(morpholinomethyl)quinolin-2-yl)-2-fluorophenyl)acetamide], the “SMC migration Assay, IC50 (nM)” value in test [2] was “****”.
On to `CC(=O)Nc1ccc(-c2cc(CN3CCOCC3)c3ccc(C#N)cc3n2)cc1Cl` [Compound 260, N-(2-chloro-4-(7-cyano-4-(morpholinomethyl)quinolin-2-yl)phenyl)acetamide], for which the IC50 in test [2] worked out at 14 nM.
On the same count and under the same terms, the same measure for `CC(=O)Nc1ccc(-c2cc(CN3CCOCC3)c3ccc(C#N)cc3n2)cc1C#N` [Compound 261, N-(2-cyano-4-(7-cyano-4-(morpholinomethyl)quinolin-2-yl)phenyl)acetamide]: 1400 nM; for `CCOc1ccc2c(CN3CCOCC3)cc(-c3ccc(NC(C)=O)c(F)c3)nc2c1` [Compound 262, N-(4-(7-ethoxy-4-(morpholinomethyl)quinolin-2-yl)-2-fluorophenyl)acetamide]: 2900 nM.
